The structures appear in SMILES notation. Activity calls are given as the source filed them.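 Rule for the calls: active = cell-killing curve crosses a set limit at a concentration no more than twice the top valid dose; inconclusive = flat curve with a 30 to 70% loss, or a poor fit; inactive = signal rising instead of falling, and the rest.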

One test can be described thus: cytotoxicity in EWS/Fli1-dependent TC71 cells – cell-based, luminescence, cherry-picked samples, retest, confirmation (AID 720570). As to conditions: TC71 Ewing sarcoma viability, CellTiter-Glo ATP, 72 h; at 23.5 µM (top of the series). A general note: In ATP-based viability assays light output follows the ATP content of the culture.
`O=S(=O)(c1ccc(F)cc1)N1C[C@H]2[C@@H](c3ccccc31)[C@H](CO)N2Cc1ccccc1Cl`: the activity change, negative = cytotoxicity is -20.2% (inactive).

Still in this test, the particulars now being: TC71 Ewing sarcoma viability, CellTiter-Glo ATP, 72 h; at 26 µM (top of the series).
On to `CCOc1cc2[nH]c(=S)n(Cc3ccc(C(=O)N4CCN(C)CC4)cc3)c(=O)c2cc1OCC`, for which the activity change, negative = cytotoxicity was 11.2% (inactive).
On to `Cc1ccccc1N=Nc1c(O)n(C)c2ccccc12`, for which the activity change, negative = cytotoxicity was 3.17% (inactive).
As to `CN(C)C(=O)c1cccc(-c2ccc(C3[C@@H]4CN(Cc5nccs5)C[C@H]3N4)cc2)c1` (some centres not stated), the activity change, negative = cytotoxicity is 0.197% (inactive).
Take `Cc1ccc2c(c1)C(=O)N1[C@H]3c4cc(Br)ccc4OC[C@@H]3[C@H](c3ccccc3)[C@]1(C)C(=O)N2`: the activity change, negative = cytotoxicity was -5.71% (inactive).
On the same count and under the same terms, with `C=CCOc1ccccc1C(=O)/C=C1/C(=O)Nc2ccccc21` the figure was -30.1% (inactive); with `C[C@H]1CN([C@@H](C)CO)S(=O)(=O)c2ccc(C#Cc3ccncc3)cc2O[C@@H]1CN(C)S(=O)(=O)c1ccccc1`, -7.09% (inactive).
On the same count and under the same terms, with `CCOc1ccc(N=C2C(=O)Nc3ccc(C)c(Br)c32)cc1` the figure was 8.53% (inactive); with `O=C(Nc1nc(-c2ccc(F)c(F)c2)cs1)c1ccc(OCC2CCCO2)cc1` (configuration not stated), 1.49% (inactive).
As for `O=C(C[C@@H]1CC[C@@H]2[C@H](COC[C@@H](O)CN2S(=O)(=O)c2ccc(F)cc2)O1)NCc1ccc(Cl)c(Cl)c1`, the activity change, negative = cytotoxicity was -10.7% (inactive).
Take `CC(C)c1ccc(OCc2cccc(C(=O)N/N=C/c3cccnc3)c2)cc1`: the activity change, negative = cytotoxicity was 0.747% (inactive).
Same read-out and setting: as for `COCCCNc1ccn2nc(-c3ccccc3)cc2n1`, the figure is -3.56% (inactive).
For `COc1cc(/C=N\Nc2nc(-c3ccc(C)cc3)c(NC(C)=O)s2)ccc1O`, the activity change, negative = cytotoxicity is 4.59% (inactive).
Still for that read-out and setting: as for `COc1cc(/C=N/NS(=O)(=O)c2ccc(C)cc2)ccc1OCc1cccc(C(=O)O)c1`, the figure is -3.76% (inactive); as for `O=C1Nc2ccccc2C1=Nc1ccccc1-c1ccccc1`, 11.4% (inactive).
Take `CN(C)C(=O)c1ccc(-c2ccccc2[C@@H]2[C@@H](CO)N(C(=O)C3CC3)[C@H]2C#N)cc1`: the activity change, negative = cytotoxicity was 25.5% (inactive).
In the case of `O=C(COC(=O)c1ccc[nH]c1=O)Nc1ccc(N2CCCCC2)cc1`, the activity change, negative = cytotoxicity was 6.54% (inactive).
Same read-out and setting: as for `COC(=O)C[C@@H]1CC[C@@H]2[C@H](COc3ccc(NC(=O)Nc4ccc(C#N)cc4)cc3C(=O)N2C)O1`, the figure is 4.12% (inactive); as for `CC1=NN(c2ccccc2)C(=O)/C1=C\C=C\c1ccccc1`, 22.9% (inactive); as for `C/C=C/c1ccc([C@H]2[C@@H](CO)N3C(=O)CN(S(=O)(=O)c4cccc(F)c4)C[C@@H]23)cc1`, 13.2% (inactive).
Take `Nc1ccc(Oc2ccccc2-c2ccccc2)cc1`: the activity change, negative = cytotoxicity is 5.42% (inactive).
Same read-out and setting: as for `CC(=O)c1ccc(N=Nc2ccc(C)cc2)cc1`, the figure is 13.2% (inactive); as for `Cc1occc1-c1n[nH]c(=S)n1C`, 0.805% (inactive); as for `Cc1ccc(Cc2c(-c3ccco3)nc3c(C)cc(Br)cn23)cc1`, -21.5% (inactive).
With `COc1ccc(N=C(NN)c2ccc3ccccc3n2)cc1`, the activity change, negative = cytotoxicity was 4.27% (inactive).
In the case of `COC(=O)C[C@@H]1CC[C@@H]2[C@@H](COc3ccc(NC(=O)Nc4cccc(F)c4)cc3C(=O)N2C)O1`, the activity change, negative = cytotoxicity was 5.61% (inactive).
As to `CCOc1ccc(/C=C2\CCc3ccccc3C2=O)cc1`, the activity change, negative = cytotoxicity is 4.42% (inactive).
As for `CCCCCCN(C(=O)CCCCCN1C(=O)NC(c2ccc(Cl)cc2)C(C(=O)OCc2ccccc2)=C1C)C(C(=O)NCCCC)c1ccc(OCC(=O)OC)c(C(=O)OC)c1` (configuration not stated), the activity change, negative = cytotoxicity is 8.62% (inactive).
Same read-out and setting: as for `COc1ccc(/C=C2\Oc3ccccc3C2=O)cc1`, the figure is -14.5% (inactive).
For the compound `N#Cc1cccc(-c2ccc(C3[C@@H]4CN(C(=O)Cc5ccncc5)C[C@H]3N4)cc2)c1` (some centres not stated), the activity change, negative = cytotoxicity is 0.809% (inactive).
Consider `C[C@H](CO)N1C[C@H](C)[C@H](CN(C)CC2CCCCC2)Oc2ccc(NC(=O)Nc3cccc4ccccc34)cc2C1=O`, for which the activity change, negative = cytotoxicity is 6.42% (inactive).
Same read-out and setting: with `Cc1ccc(/C=C2\SC(=S)N(CCCC(=O)NNC(=O)c3ccccc3O)C2=O)cc1` the figure was -5.43% (inactive).

The values are drawn from PubChem BioAssay AID720570 (Broad Institute, 2013).
